The values that follow come from ChEMBL document CHEMBL4017441, “Mitigating the inhibition of human bile salt export pump by drugs: opportunities provided by physicochemical property modulation, in silico modeling, and structural modification” (Drug Metab Dispos, 2012).

The target in this experiment is Bile salt export pump (Homo sapiens, UniProt O95342). The format is ADME.
As for `CCCCC(=O)N(Cc1ccc(-c2ccccc2-c2nnn[nH]2)cc1)[C@H](C(=O)O)C(C)C`, the 50% inhibitory concentration (IC50) turned out to be 31.1 µM.

Regarding `CNC(=O)Oc1ccc2c(c1)C1(C)CCN(C)C1N2C` (stereo unspecified), the IC50 is over 1000 µM.

`O=C(O[C@H]1C[N+]2(CCCOc3ccccc3)CCC1CC2)C(O)(c1cccs1)c1cccs1`: the IC50 turned out to be 127 µM.

For `O=C(CCCCC(=O)Nc1c(I)cc(I)c(C(=O)O)c1I)Nc1c(I)cc(I)c(C(=O)O)c1I`, the IC50 is over 970 µM.

Take `N[C@H](Cc1cc(I)c(Oc2cc(I)c(O)c(I)c2)c(I)c1)C(=O)O`: the IC50 was under 10 µM.

For `CCCc1c2nc(C(=O)O)cc(Cl)c2cc2c(=O)cc(C(=O)O)oc12`, the IC50 was over 892 µM.

Take `COc1ccc2c(c1OC)C(=O)OC2C1c2cc3c(cc2CCN1C)OCO3` (stereo unspecified): the IC50 came out at 65.6 µM.

As to `CC[C@@H](C(N)=O)N1CCCC1=O`, the IC50 was over 1000 µM.

As for `COC1C(OC(=O)/C=C/C=C/C=C/C=C/C(=O)O)CCC2(CO2)C1C1(C)OC1CC=C(C)C` (stereo unspecified), the IC50 amounted to 25.6 µM.

As for `c1ccc2[nH]c(-c3nc4ccccc4[nH]3)nc2c1`, the IC50 was 31.3 µM.

In the case of `CN1CCC(OC(c2ccccc2)c2ccccc2)CC1`, the IC50 was found to be 509 µM.

For `C=CC1CN2CCC1CC2C(O)c1ccnc2ccccc12` (stereo unspecified), the IC50 was over 1000 µM.

`CCOC(=O)[C@H](CCc1ccccc1)N[C@@H](C)C(=O)N1Cc2ccccc2C[C@H]1C(=O)O`: the IC50 worked out at 15.5 µM.

With `CCS(=O)(=O)c1ccc(-c2cc(Cl)ccc2OCC(=O)O)c(F)c1`, the IC50 was found to be 168 µM.

As to `CN1CCN(c2ccccc2/C=C2/SCCN(c3ccc(Cl)c(Cl)c3)C2=O)CC1`, the IC50 was under 10 µM.

In the case of `O=C(NCC12CC3CC(CC(C3)C1)C2)c1cc(CN2CCNCC2)ccc1Cl`, the IC50 stood at 124 µM.

For the compound `NCC1OC(OC2C(CO)OC(OC3C(O)C(N)CC(N)C3OC3OC(CN)C(O)C(O)C3N)C2O)C(N)C(O)C1O` (stereo unspecified), the half-inhibitory concentration (IC50) was over 1000 µM.

`Cc1ccc(OC(C)(C)[C@H]2OC[C@@H](C/C=C\CCC(=O)O)[C@@H](c3cccnc3)O2)c([N+](=O)[O-])c1`: the IC50 was under 10 µM.

In the case of `CNCC(O)c1cccc(O)c1` (stereo unspecified), the IC50 is over 1000 µM.

As for `C/C=C/C(=O)N(CC)c1ccccc1C`, the IC50 came to 110 µM.

In the case of `CO[C@H]1/C=C/O[C@@]2(C)Oc3c(C)c(O)c4c(O)c(c(/C=N/N5CCN(C)CC5)c(O)c4c3C2=O)NC(=O)/C(C)=C\C=C\[C@H](C)[C@H](O)[C@@H](C)[C@@H](O)[C@H](C)[C@H](OC(C)=O)[C@H]1C`, the IC50 is under 10 µM.

`CO[C@H]1/C=C/O[C@@]2(C)Oc3c(C)c(O)c4c(c3C2=O)C2=NC3(CCN(CC(C)C)CC3)NC2=C(NC(=O)/C(C)=C\C=C\[C@H](C)[C@H](O)[C@@H](C)[C@@H](O)[C@H](C)[C@H](OC(C)=O)[C@H]1C)C4=O`: the IC50 is under 10 µM.

For `CN[C@]1(C)[C@H]2CC[C@H](C2)C1(C)C`, the IC50 is over 1000 µM.

As to `O=C(O)c1cc2cc(O)ccc2n1Cc1ccc(Cl)c(Cl)c1`, the IC50 came to 49.8 µM.

As for `COc1ccc2c(c1OC)C(=O)OC2C1c2c(cc3c(c2OC)OCO3)CCN1C` (stereo unspecified), the IC50 was found to be 23.9 µM.

For `CCCCCC(C)(O)/C=C/[C@@H]1[C@@H](C/C=C\CCCC(=O)O)[C@@H](O)C[C@H]1O` (stereo partly specified), the IC50 was 329 µM.

For the compound `CCc1cc(CC)c2oc(C(=O)O)cc(=O)c2c1O`, the IC50 worked out at 112 µM.

`CS(=O)(=O)Oc1ccc(OCCc2ccc(C[C@H](SCCc3ccc(O)cc3)C(=O)O)cc2)cc1`: the IC50 is under 13.4 µM.

With `Cc1ccc(NC(=O)c2cccc3c2oc2ccccc23)cc1NC(=O)c1cccc(OC2CCN(C(C)C)CC2)c1`, the IC50 is under 10 µM.

`O=CN(O)C(CCCc1ncccn1)CS(=O)(=O)N1CCN(c2ccc(F)cc2)CC1` (stereo unspecified): the IC50 was under 16.4 µM.

For the compound `Cc1cc2c(cc(C(=O)O)n2Cc2ccc(Cl)c(Cl)c2)o1`, the IC50 turned out to be 15.9 µM.

On to `CC(=O)NC[C@H]1CN(c2ccc(C(=O)c3cnc4ccc(Cl)cn34)cc2)C(=O)O1`, for which the IC50 worked out at 27.6 µM.

For `C[C@H](Oc1ccc(C(F)(F)F)cc1-c1ccc(S(C)(=O)=O)c(C(F)(F)F)c1)C(=O)O`, the IC50 was determined as 35.8 µM.

On to `COc1cc2c(Oc3ccc4[nH]c(C)cc4c3F)ncnc2cc1OCCCN1CCCCC1`, for which the IC50 is 22.7 µM.

Consider `O=CN(O)C(CCc1ccccn1)CS(=O)(=O)N1CCN(c2ccc(Cl)cn2)CC1` (stereo unspecified), for which the IC50 is under 10 µM.

As to `CC1=C(C(=O)O)N2C(=O)[C@@H](NC(=O)C(N)C3=CCC=CC3)C2SC1` (stereo partly specified), the IC50 is over 1000 µM.

Take `CCC1C(=O)OCC1Cc1cncn1C` (stereo unspecified): the IC50 was over 1000 µM.

On to `Cc1cc(Nc2nc(NCc3cc(-c4ccccn4)no3)ncc2Cl)[nH]n1`, for which the IC50 is under 10 µM.

Consider `O=CN(O)C(CCc1ncccn1)CS(=O)(=O)N1CCN(c2ccc(Cl)cn2)CC1` (stereo unspecified), for which the IC50 is under 10 µM.

Consider `COc1ccc2cc(C(C)CO)ccc2c1` (stereo unspecified), for which the IC50 lay in the range of 97.6 to 98 µM.

Consider `O=C(O)c1cc2scnc2n1Cc1ccc(Cl)c(Cl)c1`, for which the IC50 was 22.4 µM.

On to `CC(C)(C)C(=O)CN1CC2CN(CCCNc3ccc(C#N)cc3)CC(C1)O2`, for which the IC50 was 514 µM.

As for `Nc1nc(NCCN2CCOCC2)nc2nc(-c3ccco3)nn12`, the IC50 is over 1000 µM.

For the compound `CCCCCCCC/C=C/CCCCCCCC(=O)OCC(COP(=O)(O)OCC[N+](C)(C)C)OC(=O)CCCCCCC/C=C/CCCCCCCC` (stereo unspecified), the IC50 is under 16 µM.

In the case of `CC[C@H]1OC(=O)[C@H](C)[C@H](O[C@H]2C[C@@](C)(OC)[C@@H](O)[C@H](C)O2)[C@H](C)[C@@H](O[C@@H]2O[C@H](C)C[C@H](N(C)C)[C@H]2O)[C@](C)(O)C[C@@H](C)CN(C)[C@H](C)[C@H](O)[C@]1(C)O`, the IC50 is over 1000 µM.

As to `O=CN(O)[C@@H](CCCc1ncccn1)CS(=O)(=O)N1CCN(c2ccc(Cl)cn2)CC1`, the IC50 is under 10 µM.

Regarding `COc1c(C(=O)O)n(Cc2ccc(Cl)c(Cl)c2)c2ccc(O)cc12`, the IC50 was 39.6 µM.

For the compound `CC(=O)NC[C@H]1CN(c2cc(F)c(C3=CCN(C(=O)CO)CC3)c(F)c2)C(=O)O1`, the IC50 is over 1000 µM.

Consider `O=CN(O)C(CCc1ccccc1)CS(=O)(=O)N1CCN(c2ccc(Cl)cn2)CC1` (stereo unspecified), for which the half-maximal inhibitory concentration (IC50) is under 10 µM.

For `C/C(=N\OC(C)(C)C(=O)O)c1csc(N)n1`, the half-inhibitory concentration (IC50) was over 1000 µM.

With `CC(=O)OCC(=O)C1(O)C(C)CC2C3CC(F)C4=CC(=O)C=CC4(C)C3C(O)CC21C` (stereo unspecified), the IC50 was 33.6 µM.

Take `Cc1ccc(NC(=O)c2cccc(-c3ccco3)c2)cc1-n1cnc2ccc(N3CCN(C)CC3)cc2c1=O`: the IC50 was under 10 µM.

For the compound `CC(=O)NC[C@H]1CN(c2ccc(-n3cnc(Br)c3)c(F)c2)C(=O)O1`, the IC50 came to 349 µM.

Turning to `CN[C@H]1C(O[C@H]2C(OC3C(O)C(O)C(NC(=N)N)C(O)C3NC(=N)N)OC(C)[C@]2(O)C=O)O[C@H](CO)[C@@H](O)[C@@H]1O` (stereo partly specified), the half-maximal inhibitory concentration (IC50) was over 1000 µM.

Take `C[C@H](CC(=O)Nc1c(Cl)ccc2nc(N3CC[C@H](N)C3)ccc12)c1ccccc1`: the IC50 was under 27 µM.

`CCCc1ccc(OCC(C)O)c2c(=O)cc(C(=O)O)oc12` (stereo unspecified): the 50% inhibitory concentration (IC50) turned out to be 271 µM.

In the case of `CCCc1c(OCCCOc2ccc3c(=O)cc(CCC(=O)O)oc3c2CCC)ccc(C(C)=O)c1O`, the IC50 is under 10 µM.

For `Cc1cccc(C)c1NC(=O)[C@H]1CCCCN1C`, the IC50 was over 1000 µM.

With `CCCC(=O)c1cnc2c(OCC[S+](C)[O-])cccc2c1Nc1ccc(F)cc1C` (stereo unspecified), the IC50 was under 10 µM.

Consider `CC[C@H]1OC(=O)[C@H](C)[C@H](O[C@H]2C[C@@](C)(OC)[C@@H](O)[C@H](C)O2)[C@@H](C)[C@@H](O[C@@H]2O[C@H](C)C[C@H](N(C)C)[C@H]2O)[C@@](C)(OC)C[C@@H](C)C(=O)[C@H](C)[C@H](O)[C@]1(C)O`, for which the IC50 is under 12.9 µM.

Regarding `O=C(O)c1cc2c(F)c(O)ccc2n1Cc1ccc(Cl)c(Cl)c1`, the IC50 amounted to 19.3 µM.

Regarding `O=CN(O)C(CCc1ccccc1)CS(=O)(=O)N1CCN(c2ccc(F)cc2)CC1` (stereo unspecified), the half-maximal inhibitory concentration (IC50) is under 10 µM.

`CC(CCC(=O)O)C1CCC2C3C(=O)CC4CC(=O)CCC4(C)C3CC(=O)C12C` (stereo unspecified): the IC50 is 202 µM.

For the compound `O=CN(O)C(CCCc1ncccn1)CS(=O)(=O)N1CCC(Oc2ccc(Cl)cn2)CC1` (stereo unspecified), the IC50 is under 10 µM.

With `N[C@H]1CCN(c2ccc3c(C(=O)NCC4CCCCC4)c(Cl)ccc3n2)C1`, the IC50 worked out at 107 µM.

For `C[C@@](O)(C(=O)Nc1ccc(S(=O)(=O)c2ccc(NCCO)cc2)cc1Cl)C(F)(F)F`, the IC50 is 27.4 µM.

In the case of `Cc1ccc(-n2c3c/c(=N\C(C)C)c(Nc4ccc(Cl)cc4)cc-3nc3ccccc32)cc1`, the IC50 turned out to be 135 µM.

Consider `CC(=O)Oc1ccc2c(c1)cc(C(=O)O)n2Cc1ccc(Cl)c(Cl)c1`, for which the IC50 was 55.2 µM.

Consider `CC(C)C(=O)N[C@@H](CS)C(=O)O`, for which the 50% inhibitory concentration (IC50) was over 1000 µM.

As to `C[C@H]1C[C@@](O)(c2csc(Sc3ccc4c(c3)CC(=O)N4C)c2)CCO1`, the IC50 is under 10.9 µM.

As for `COc1ccc(CC(N)C(=O)N[C@@H]2[C@@H](CO)OC(n3cnc4c(N(C)C)ncnc43)[C@@H]2O)cc1` (stereo partly specified), the 50% inhibitory concentration (IC50) is over 787 µM.

As for `Cc1cc(CCC(=O)O)cc(C)c1-c1nc2ccc(-c3nnc(Nc4cccc(Cl)c4)o3)cc2[nH]1`, the IC50 was under 10 µM.

Turning to `O=C(NO)C(CCc1ccccc1)CS(=O)(=O)N1CCN(c2ccc(F)cc2)CC1` (stereo unspecified), the IC50 was under 10 µM.

Take `Cc1nc2c3c(ccn2c1CO)CCC(c1ccccc1)O3` (stereo unspecified): the IC50 was under 10 µM.

In the case of `Bc1ccc(S(=O)(=O)N2CCN(C(=O)N3CCN(c4cc(C)ncn4)CC3)CC2)cc1`, the IC50 was under 10 µM.

As to `O=CN(O)C(CCc1cccnc1)CS(=O)(=O)N1CCC(Oc2ccc(Cl)cn2)CC1` (stereo unspecified), the half-inhibitory concentration (IC50) is under 10 µM.

With `O=C(O)c1cc2c(OCCCO)cccc2n1Cc1ccc(Cl)c(Cl)c1`, the IC50 is under 14 µM.

As for `O=CN(O)C(CCc1cccnc1)CS(=O)(=O)N1CCN(c2ccc(Cl)cn2)CC1` (stereo unspecified), the IC50 is under 10 µM.

Regarding `O=C(/C=C/c1c(C(=O)O)[nH]c2cc(Cl)cc(Cl)c12)Nc1ccccc1`, the IC50 was under 10 µM.

As for `CCOC(N)=O`, the IC50 is over 1000 µM.

With `CC(C)[C@H](O)C(=O)N[C@@H](C)C(=O)N[C@@H]1C(=O)N(C)CCc2ccccc21`, the IC50 worked out at 472 µM.

In the case of `O=C(NCCc1ccccc1Cl)c1cc(-n2ncc(=O)[nH]c2=O)ccc1Cl`, the IC50 is 34.4 µM.

As to `COc1cccc(N2C(N)=NC(N)=NC23CCCCC3)c1`, the IC50 was over 1000 µM.

Take `CCCCCCCCCCCCc1ccc(S(=O)(=O)Nc2nncs2)cc1`: the IC50 was determined as 21 µM.

With `N=c1nc(N2CCCCC2)cc(N)n1O`, the IC50 was over 1000 µM.

In the case of `N[C@@H](Cc1ccc(N(CCCl)CCCl)cc1)C(=O)O`, the IC50 is 93.7 µM.

As a reminder, the IC50 is the midpoint of a concentration-inhibition curve.
